Laboratory results as given in patent US12415834B2, “GhR-binding peptide and composition comprising same” (priority 2021, dated 2025).
Starred links: 1 amine or outer side, 2 acyl side, 3 side chain; linkers in the order of their positions; H or OH if unused. Positions of bridges follow the written chain, without caps; N, C: chain ends. Non-standard residues stand in square brackets, D forms with d. Residues, ends and D or L forms follow the SMILES beside them. Groups on a side chain read outwards from the residue. *: point of attachment. X12 = NC(=O)[C@H](CCCCN*)NC(=O)CC[C@H](NC(=O)CC[C@H](NC(=O)CCCc1ccc(-c2ccccc2)cc1)C(=O)O)C(=O)O; X3 = NC(=O)[C@H](CCCCN*)NC(=O)CC[C@H](NC(=O)CC[C@H](NC(=O)CCCCCCCCCCCCCCC(=O)O)C(=O)O)C(=O)O; X10 = NC(=O)[C@H](CCCCN*)NC(=O)CC[C@H](NC(=O)CC[C@H](NC(=O)CCCc1ccc(I)cc1)C(=O)O)C(=O)O; X18 = NC(=O)[C@H](CCCCN*)NC(=O)CC[C@H](NC(=O)CC[C@H](NC(=O)CCCc1ccccc1)C(=O)O)C(=O)O; X20 = CC(=O)N[C@@H](CCC(=O)N[C@@H](CCC(=O)N[C@@H](CCCCN*)C(N)=O)C(=O)O)C(=O)O; Trp(1-CH2CO) = O=C([C@H](Cc1cn(CC(=O)[*:3])c2ccccc12)N[*:1])[*:2]; Trp(5-OMe) = COc1ccc2[nH]cc(C[C@H](N)C(=O)O)c2c1; Butanoyl(4-(4-I-phenyl)) = O=C(CCCc1ccc(I)cc1)*; Trp(5-OH) = N[C@@H](Cc1c[nH]c2ccc(O)cc12)C(=O)O; Phe(4-COOH) = N[C@@H](Cc1ccc(C(=O)O)cc1)C(=O)O; Piperazinyl(4-CH2COOH) = O=C(O)CN1CCN(*)CC1; X7 = O=C(O)CN1CCC(N[*:1])(C(=O)[*:2])CC1; C16 diacid = O=C(O)CCCCCCCCCCCCCCC(=O)*; γGlu = O=C(O)[C@H](CCC(=O)[*:2])N[*:1]; NMeK = CN[C@@H](CCCCN)C(=O)O; X16 = CN(CC(=O)[*:1])[*:2]; Aib = CC(C)(N)C(=O)O; CO = O=C([*:1])[*:2]

Target: T1, Recombinant human GhR-Fc protein (Homo sapiens, UniProt P10912)
T1 construct: purchased R&D Systems
Assay: SPR binding assay (Biacore T200, single-cycle kinetics) of peptides against immobilized human GhR-Fc
Conditions: not given
Procedure, shortened: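 Human GhR-Fc amine-coupled to a CM5 chip at pH 4.0; running buffer HBS-EP with 1% DMSO. Peptides measured by single-cycle kinetics on Biacore T200, with solvent correction and baseline subtraction. KD calculated from fitted ka and kd.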

T1 sequence (P10912 with tags, fused parts or gaps limits assumed): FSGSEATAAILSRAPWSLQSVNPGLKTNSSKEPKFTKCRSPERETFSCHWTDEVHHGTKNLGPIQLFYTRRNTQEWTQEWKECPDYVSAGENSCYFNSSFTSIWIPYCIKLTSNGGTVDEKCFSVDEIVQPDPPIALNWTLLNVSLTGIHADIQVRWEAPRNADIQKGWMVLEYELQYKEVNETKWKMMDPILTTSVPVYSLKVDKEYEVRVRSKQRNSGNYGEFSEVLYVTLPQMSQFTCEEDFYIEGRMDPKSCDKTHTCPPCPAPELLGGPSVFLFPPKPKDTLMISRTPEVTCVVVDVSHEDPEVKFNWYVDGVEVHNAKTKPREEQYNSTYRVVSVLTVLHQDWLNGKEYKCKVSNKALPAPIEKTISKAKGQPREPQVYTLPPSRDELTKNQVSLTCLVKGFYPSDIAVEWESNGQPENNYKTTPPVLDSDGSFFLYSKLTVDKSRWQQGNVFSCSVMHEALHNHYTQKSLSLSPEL

Structure (SMILES)	Kd [nM]
CC(C)[C@@H]1NC(=O)[C@H](C(C)C)NC(=O)[C@@H]2CCCCNC(=O)Cn3cc(c4ccccc43)C[C@H](NC(=O)[C@H](CC(N)=O)NC(=O)[C@H](CO)NC1=O)C(=O)N[C@@H](Cc1ccc(C(=O)O)cc1)C(=O)N[C@@H](CCCCN)C(=O)N[C@@H](Cc1c[nH]c3ccc(O)cc13)C(=O)NC(C)(C)C(=O)N[C@@H](C(C)C)C(=O)N[C@H](C(=O)NCCCC[C@H](NC(=O)CC[C@H](NC(=O)CC[C@H](NC(=O)CCCc1ccc(-c3ccccc3)cc1)C(=O)O)C(=O)O)C(N)=O)CSCC(=O)N[C@@H](Cc1ccc(C(=O)O)cc1)C(=O)N2C [Compound 15] ({CH2CO}-[Phe(4-COOH)][NMeK]VVSN[Trp(1-CH2CO)][Phe(4-COOH)]K[Trp(5-OH)][Aib]VC-X12; lactam 2-7; thioether N-13)	1.61

Same assay, conditions: SPR, hGhR; Table 1 bicyclic peptides; KD calculated from ka and kd; read-out: KD

Kd [nM]	Structure (SMILES)
2.03	CC(C)[C@@H]1NC(=O)[C@H](C(C)C)NC(=O)[C@@H]2CCCCNC(=O)Cn3cc(c4ccccc43)C[C@H](NC(=O)[C@H](CC(N)=O)NC(=O)[C@H](CO)NC1=O)C(=O)N[C@@H](Cc1ccc(C(=O)O)cc1)C(=O)N[C@@H](CCCCN)C(=O)N[C@@H](Cc1c[nH]c3ccc(O)cc13)C(=O)NC(C)(C)C(=O)N[C@@H](C(C)C)C(=O)N[C@H](C(=O)NCCCC[C@H](NC(=O)CC[C@H](NC(=O)CC[C@H](NC(=O)CCCc1ccccc1)C(=O)O)C(=O)O)C(N)=O)CSCC(=O)N[C@@H](Cc1ccc(C(=O)O)cc1)C(=O)N2C [Compound 10] ({CH2CO}-[Phe(4-COOH)][NMeK]VVSN[Trp(1-CH2CO)][Phe(4-COOH)]K[Trp(5-OH)][Aib]VC-X18; lactam 2-7; thioether N-13)
1.79	CC(C)[C@@H]1NC(=O)[C@H](C(C)C)NC(=O)[C@@H]2CCCCNC(=O)Cn3cc(c4ccccc43)C[C@H](NC(=O)[C@H](CC(N)=O)NC(=O)[C@H](CO)NC1=O)C(=O)N[C@@H](Cc1ccc(O)cc1)C(=O)N[C@@H](CCCCNC(=O)N1CCN(CC(=O)O)CC1)C(=O)N[C@@H](Cc1c[nH]c3ccc(O)cc13)C(=O)NC(C)(C)C(=O)N[C@@H](C(C)C)C(=O)N[C@H](C(=O)NCCCC[C@H](NC(=O)CC[C@H](NC(=O)CC[C@H](NC(=O)CCCCCCCCCCCCCCC(=O)O)C(=O)O)C(=O)O)C(N)=O)CSCC(=O)N[C@@H](Cc1ccc(O)cc1)C(=O)N2C [Compound 27] ({CH2CO}-Y[NMeK]VVSN[Trp(1-CH2CO)]YK([CO-Piperazinyl(4-CH2COOH)])[Trp(5-OH)][Aib]VC-X3; lactam 2-7; thioether N-13)
3.51	CC(=O)N[C@@H](CCC(=O)N[C@@H](CCC(=O)N[C@@H](CCCCNC(=O)[C@@H]1CSCC(=O)N[C@@H](Cc2ccc(C(=O)O)cc2)C(=O)N(C)[C@H]2CCCCNC(=O)Cn3cc(c4ccccc43)C[C@H](NC(=O)[C@H](CC(N)=O)NC(=O)[C@H](CO)NC(=O)[C@H](C(C)C)NC(=O)[C@H](C(C)C)NC2=O)C(=O)N[C@@H](Cc2ccc(C(=O)O)cc2)C(=O)N[C@@H](CCCCN)C(=O)N[C@@H](Cc2c[nH]c3ccc(O)cc23)C(=O)NC(C)(C)C(=O)N[C@@H](C(C)C)C(=O)N1)C(N)=O)C(=O)O)C(=O)O [Compound 58] ({CH2CO}-[Phe(4-COOH)][NMeK]VVSN[Trp(1-CH2CO)][Phe(4-COOH)]K[Trp(5-OH)][Aib]VC-X20; lactam 2-7; thioether N-13)
1.71	CC(C)[C@@H]1NC(=O)[C@H](C(C)C)NC(=O)[C@@H]2CCCCNC(=O)CN(C)C(=O)Cn3cc(c4ccccc43)C[C@H](NC(=O)[C@H](CC(N)=O)NC(=O)[C@H](CO)NC1=O)C(=O)N[C@@H](Cc1ccc(O)cc1)C(=O)N[C@@H](CCCCN)C(=O)N[C@@H](Cc1c[nH]c3ccc(O)cc13)C(=O)NC(C)(C)C(=O)N[C@@H](C(C)C)C(=O)N[C@H](C(=O)NCC(N)=O)CSCC(=O)N[C@@H](Cc1ccc(O)cc1)C(=O)N2C [Compound 3] ({CH2CO}-Y[NMeK]VVSN[Trp(1-CH2CO)]YK[Trp(5-OH)][Aib]VCG-NH2; linker 2-7 via X16; thioether N-13)
2.26	CC(C)[C@@H]1NC(=O)[C@H](C(C)C)NC(=O)[C@@H]2CCCCNC(=O)Cn3cc(c4ccccc43)C[C@H](NC(=O)[C@H](CC(N)=O)NC(=O)[C@H](CO)NC1=O)C(=O)N[C@@H](Cc1ccc(O)cc1)C(=O)N[C@@H](CCCCN)C(=O)N[C@@H](Cc1c[nH]c3ccc(O)cc13)C(=O)NC1(CCN(CC(=O)O)CC1)C(=O)N[C@@H](C(C)C)C(=O)N[C@H](C(=O)NCC(=O)N1CCC[C@H]1C(=O)N[C@H](CO)C(=O)N[C@H](CO)C(=O)N[C@H](CO)C(=O)N[C@@H](CCCCNC(=O)CC[C@H](NC(=O)CC[C@H](NC(=O)CCCCCCCCCCCCCCC(=O)O)C(=O)O)C(=O)O)C(N)=O)CSCC(=O)N[C@@H](Cc1ccc(O)cc1)C(=O)N2C [Compound 30] ({CH2CO}-Y[NMeK]VVSN[Trp(1-CH2CO)]YK[Trp(5-OH)][X7]VCGP[dS][dS][dS]K([γGlu-γGlu-C16 diacid])-NH2; lactam 2-7; thioether N-13)
1.07	CC(C)[C@@H]1NC(=O)[C@H](C(C)C)NC(=O)[C@@H]2CCCCNC(=O)Cn3cc(c4ccccc43)C[C@H](NC(=O)[C@H](CC(N)=O)NC(=O)[C@H](CO)NC1=O)C(=O)N[C@@H](Cc1ccc(O)cc1)C(=O)N[C@@H](CCCCN)C(=O)N[C@@H](Cc1c[nH]c3ccc(O)cc13)C(=O)NC(C)(C)C(=O)N[C@@H](C(C)C)C(=O)N[C@H](C(=O)NCCCC[C@H](NC(=O)CC[C@H](NC(=O)CC[C@H](NC(=O)CCCc1ccc(I)cc1)C(=O)O)C(=O)O)C(N)=O)CSCC(=O)N[C@@H](Cc1ccc(C(=O)O)cc1)C(=O)N2C [Compound 21] ({CH2CO}-[Phe(4-COOH)][NMeK]VVSN[Trp(1-CH2CO)]YK[Trp(5-OH)][Aib]VC-X10; lactam 2-7; thioether N-13)
0.7	CC(C)[C@@H]1NC(=O)[C@H](C(C)C)NC(=O)[C@@H]2CCCCNC(=O)Cn3cc(c4ccccc43)C[C@H](NC(=O)[C@H](CC(N)=O)NC(=O)[C@H](CO)NC1=O)C(=O)N[C@@H](Cc1ccc(O)cc1)C(=O)N[C@@H](CCCCN)C(=O)N[C@@H](Cc1c[nH]c3ccc(O)cc13)C(=O)NC(C)(C)C(=O)N[C@@H](C(C)C)C(=O)N[C@H](C(=O)NCC(N)=O)CSCC(=O)N[C@@H](Cc1ccc(O)cc1)C(=O)N2C [Compound 1] ({CH2CO}-Y[NMeK]VVSN[Trp(1-CH2CO)]YK[Trp(5-OH)][Aib]VCG-NH2; lactam 2-7; thioether N-13; C-terminus assumed)

Same assay, conditions: SPR, hGhR; Table 2 monocyclic peptides; KD calculated from ka and kd; read-out: KD

Kd [nM]	Structure (SMILES)
7.38	COc1ccc2[nH]cc(C[C@@H]3NC(=O)[C@H](CC(N)=O)NC(=O)[C@H](CO)NC(=O)[C@H](C(C)C)NC(=O)[C@H](C(C)C)NC(=O)[C@H](CCCCNC(=O)CC[C@H](NC(=O)CC[C@H](NC(=O)CCCc4ccc(I)cc4)C(=O)O)C(=O)O)N(C)C(=O)[C@H](Cc4ccc(O)cc4)NC(=O)CSC[C@@H](C(N)=O)NC(=O)[C@H](C(C)C)NC(=O)C(C)(C)NC(=O)[C@H](Cc4c[nH]c5ccc(O)cc45)NC(=O)[C@H](CCCCNC(=O)N4CCN(CC(=O)O)CC4)NC(=O)[C@H](Cc4ccc(C(=O)O)cc4)NC3=O)c2c1 [Compound 47] ({CH2CO}-Y[NMeK]([γGlu-γGlu-Butanoyl(4-(4-I-phenyl))])VVSN[Trp(5-OMe)][Phe(4-COOH)]K([CO-Piperazinyl(4-CH2COOH)])[Trp(5-OH)][Aib]VC-NH2; thioether N-13)
10.8	COc1ccc2[nH]cc(C[C@@H]3NC(=O)[C@H](CC(N)=O)NC(=O)[C@H](CO)NC(=O)[C@H](C(C)C)NC(=O)[C@H](C(C)C)NC(=O)[C@H](CCCCNC(=O)CC[C@H](NC(=O)CCCc4ccc(I)cc4)C(=O)O)N(C)C(=O)[C@H](Cc4ccc(C(=O)O)cc4)NC(=O)CSC[C@@H](C(N)=O)NC(=O)[C@H](C(C)C)NC(=O)C4(CCN(CC(=O)O)CC4)NC(=O)[C@H](Cc4c[nH]c5ccc(O)cc45)NC(=O)[C@H](CCCCN)NC(=O)[C@H](Cc4ccc(C(=O)O)cc4)NC3=O)c2c1 [Compound 36] ({CH2CO}-[Phe(4-COOH)][NMeK]([γGlu-Butanoyl(4-(4-I-phenyl))])VVSN[Trp(5-OMe)][Phe(4-COOH)]K[Trp(5-OH)][X7]VC-NH2; thioether N-13)
3.79	COc1ccc2[nH]cc(C[C@@H]3NC(=O)[C@H](CC(N)=O)NC(=O)[C@H](CO)NC(=O)[C@H](C(C)C)NC(=O)[C@H](C(C)C)NC(=O)[C@H](CCCCNC(=O)CC[C@H](NC(=O)CC[C@H](NC(=O)CCCc4ccc(I)cc4)C(=O)O)C(=O)O)N(C)C(=O)[C@H](Cc4ccc(C(=O)O)cc4)NC(=O)CSC[C@@H](C(=O)NCC(=O)N4CCC[C@H]4C(=O)N[C@H](CO)C(=O)N[C@H](CO)C(=O)N[C@H](CO)C(N)=O)NC(=O)[C@H](C(C)C)NC(=O)C(C)(C)NC(=O)[C@H](Cc4c[nH]c5ccc(O)cc45)NC(=O)[C@H](CCCCN)NC(=O)[C@H](Cc4ccc(C(=O)O)cc4)NC3=O)c2c1 [Compound 42] ({CH2CO}-[Phe(4-COOH)][NMeK]([γGlu-γGlu-Butanoyl(4-(4-I-phenyl))])VVSN[Trp(5-OMe)][Phe(4-COOH)]K[Trp(5-OH)][Aib]VCGP[dS][dS][dS]-NH2; thioether N-13)
2.08	COc1ccc2[nH]cc(C[C@@H]3NC(=O)[C@H](CC(N)=O)NC(=O)[C@H](CO)NC(=O)[C@H](C(C)C)NC(=O)[C@H](C(C)C)NC(=O)[C@H](CCCCNC(=O)CC[C@H](NC(=O)CCCc4ccc(I)cc4)C(=O)O)N(C)C(=O)[C@H](Cc4ccc(O)cc4)NC(=O)CSC[C@@H](C(=O)NCC(=O)N4CCC[C@H]4C(=O)N[C@H](CO)C(=O)N[C@H](CO)C(=O)N[C@H](CO)C(N)=O)NC(=O)[C@H](C(C)C)NC(=O)C(C)(C)NC(=O)[C@H](Cc4c[nH]c5ccc(O)cc45)NC(=O)[C@H](CCCCN)NC(=O)[C@H](Cc4ccc(C(=O)O)cc4)NC3=O)c2c1 [Compound 54] ({CH2CO}-Y[NMeK]([γGlu-Butanoyl(4-(4-I-phenyl))])VVSN[Trp(5-OMe)][Phe(4-COOH)]K[Trp(5-OH)][Aib]VCGP[dS][dS][dS]-NH2; thioether N-13)
